Test results: patent US20030203414A1, “COMPOUNDS THAT INHIBIT THE INTERACTION BETWEEN SIGNAL-TRANSDUCING PROTEINS AND THE GLGF (PDZ/DHR) DOMAIN AND USES THEREOF” (priority 1999, published 2003)
“Also recorded” adds a separate entry of the source. No end group written: not given here.

Columns and labels:
[1] = molecular target: T1, binding of FAP-1 to Fas proteins extracted from Jurkat T-cells (Homo sapiens, UniProt Q12923); test: Immuno-precipitation of native Fas from Jurkat T-cell extracts with GST-FAP-1, inhibition with tripeptides; details: FIGS. 4C and 4D, Western analysis with anti-Fas monoclonal antibody
T1 construct: made in house; Fas is endogenous in Jurkat T-cell extract
T1 sequence (Q12923 whole entry): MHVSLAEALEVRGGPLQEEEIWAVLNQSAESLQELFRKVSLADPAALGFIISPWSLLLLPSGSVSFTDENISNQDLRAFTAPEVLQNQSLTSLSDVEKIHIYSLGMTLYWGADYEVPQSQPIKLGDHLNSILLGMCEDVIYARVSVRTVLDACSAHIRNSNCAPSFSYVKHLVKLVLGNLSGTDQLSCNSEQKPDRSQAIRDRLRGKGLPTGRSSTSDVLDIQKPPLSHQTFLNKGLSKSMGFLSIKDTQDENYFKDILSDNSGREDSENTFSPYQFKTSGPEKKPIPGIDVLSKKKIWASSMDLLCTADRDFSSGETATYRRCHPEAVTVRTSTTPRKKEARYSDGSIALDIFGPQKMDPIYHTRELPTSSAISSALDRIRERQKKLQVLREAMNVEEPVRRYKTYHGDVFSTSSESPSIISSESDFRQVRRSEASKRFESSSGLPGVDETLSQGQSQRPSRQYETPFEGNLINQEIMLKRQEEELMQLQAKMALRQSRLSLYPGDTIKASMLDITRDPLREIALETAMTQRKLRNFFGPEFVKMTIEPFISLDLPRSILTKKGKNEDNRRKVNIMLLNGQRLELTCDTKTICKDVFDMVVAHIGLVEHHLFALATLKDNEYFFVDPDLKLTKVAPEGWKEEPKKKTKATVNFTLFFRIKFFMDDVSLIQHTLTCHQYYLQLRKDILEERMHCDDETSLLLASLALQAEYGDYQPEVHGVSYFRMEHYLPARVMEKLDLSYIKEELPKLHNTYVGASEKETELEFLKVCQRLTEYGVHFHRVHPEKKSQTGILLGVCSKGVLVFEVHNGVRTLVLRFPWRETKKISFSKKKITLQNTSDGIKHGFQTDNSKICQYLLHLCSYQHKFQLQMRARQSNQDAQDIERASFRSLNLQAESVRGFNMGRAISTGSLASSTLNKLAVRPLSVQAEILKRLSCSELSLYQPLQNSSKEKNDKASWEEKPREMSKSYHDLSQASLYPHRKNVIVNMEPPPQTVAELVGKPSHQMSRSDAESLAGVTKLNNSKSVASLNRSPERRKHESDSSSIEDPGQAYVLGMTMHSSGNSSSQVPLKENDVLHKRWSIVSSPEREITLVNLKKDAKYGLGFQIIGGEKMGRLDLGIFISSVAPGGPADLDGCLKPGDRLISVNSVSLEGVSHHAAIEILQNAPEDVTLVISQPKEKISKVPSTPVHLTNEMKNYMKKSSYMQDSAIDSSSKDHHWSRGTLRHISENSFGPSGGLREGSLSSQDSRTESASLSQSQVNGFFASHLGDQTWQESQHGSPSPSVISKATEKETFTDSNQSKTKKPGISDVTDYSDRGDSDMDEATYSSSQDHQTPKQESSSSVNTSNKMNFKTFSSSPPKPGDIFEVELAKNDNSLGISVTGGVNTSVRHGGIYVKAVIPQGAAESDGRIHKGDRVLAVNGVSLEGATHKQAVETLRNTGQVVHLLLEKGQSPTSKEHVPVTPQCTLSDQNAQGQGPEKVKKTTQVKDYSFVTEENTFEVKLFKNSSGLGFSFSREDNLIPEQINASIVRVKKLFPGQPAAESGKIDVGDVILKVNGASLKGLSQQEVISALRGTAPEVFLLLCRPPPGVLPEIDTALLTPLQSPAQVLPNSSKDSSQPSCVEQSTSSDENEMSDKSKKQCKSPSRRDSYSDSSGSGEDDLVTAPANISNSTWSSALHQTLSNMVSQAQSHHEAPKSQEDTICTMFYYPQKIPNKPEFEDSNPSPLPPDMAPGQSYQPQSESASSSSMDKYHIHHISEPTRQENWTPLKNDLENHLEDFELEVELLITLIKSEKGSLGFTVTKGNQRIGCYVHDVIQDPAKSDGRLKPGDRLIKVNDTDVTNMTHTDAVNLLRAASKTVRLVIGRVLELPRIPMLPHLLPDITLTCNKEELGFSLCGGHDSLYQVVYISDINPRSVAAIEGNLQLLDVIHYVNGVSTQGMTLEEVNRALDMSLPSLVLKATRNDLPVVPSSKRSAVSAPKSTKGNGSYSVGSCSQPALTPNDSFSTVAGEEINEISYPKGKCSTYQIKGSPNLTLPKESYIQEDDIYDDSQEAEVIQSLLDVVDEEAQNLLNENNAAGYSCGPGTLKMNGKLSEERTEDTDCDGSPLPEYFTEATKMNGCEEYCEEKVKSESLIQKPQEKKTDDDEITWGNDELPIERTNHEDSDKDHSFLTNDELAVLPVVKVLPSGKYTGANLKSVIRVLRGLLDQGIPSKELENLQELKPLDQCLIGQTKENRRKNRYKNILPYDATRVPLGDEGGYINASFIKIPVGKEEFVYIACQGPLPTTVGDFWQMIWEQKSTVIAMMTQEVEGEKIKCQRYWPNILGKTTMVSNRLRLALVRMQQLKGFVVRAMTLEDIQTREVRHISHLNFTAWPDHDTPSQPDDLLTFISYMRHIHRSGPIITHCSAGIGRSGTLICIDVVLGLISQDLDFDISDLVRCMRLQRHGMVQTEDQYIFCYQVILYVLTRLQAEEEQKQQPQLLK
Procedure: GST-fusion proteins with or without FAP-1 were incubated with cell extracts from Jurkat T-cells expressing Fas. The bound Fas was detected by Western analysis using anti-Fas monoclonal antibody (F22120, Transduction Laboratories). The tripeptides, Ac-SLV and Ac-SLY were used for the inhibition assay of Fas/FAP-1 binding.

[2] = system: DLD-1 human colon cancer cells; test: Microinjection of synthetic tripeptides into DLD-1 cells, Fas-induced apoptosis; format: cell-based; details: tripeptide 100 mM microinjected into the cytoplasm; CH11 500 ng/ml; 16 to 20 hours postinjection; condensed chromatin, Hoechst 33342
Procedure: DLD-1 human colon cancer cells were cultured in RPMI 1640 medium containing 10% FCS. For microinjection, cells were plated on CELLocate (Eppendorf) at 1×10^5 cells/2 ml in a 35 mm plastic culture dish and grown for 1 day. Just before microinjection, Fas monoclonal antibodies CH11 (MBL International) was added at the concentration of 500 ng/ml. All microinjection experiments were performed using an automatic microinjection system (Eppendorf transjector 5246, micro-manipulator 5171 and Femtotips) (Pantel, et al. 1995). Synthetic tripeptides were suspended in 0.1% (w/v) FITC-Dextran (Sigma)/K-PBS at the concentration of 100 mM. The samples were microinjected into the cytoplasmic region of DLD-1 cells. Sixteen to 20 hours postinjection, the cells were washed with PBS and stained with 10 μg/ml Hoechst 33342 in PBS. After incubation at 37° C. for 30 minutes, the cells were photographed and the cells showing condensed chromatin were counted as apoptotic.
For each experiment, 25-100 cells were microinjected. Apoptosis of microinjected cells was determined by assessing morphological changes of chromatin using phase contrast and fluorescence microscopy (Wang, et al., 1995; McGahon, et al., 1995). The data are means +/−S.D. for two or three independent determinations.

Fas/FAP-1 binding = test: In vitro inhibition assay of Fas/FAP-1 binding (GST-Fas fusion protein and in vitro-translated 35S-labeled FAP-1); details: for binding of in vitro-translated FAP-1 to GST-Fas: FIG. 3A, GST-Fas (191-355), C-terminal 15 amino acids at 1-1000 μM, human PAMP at 1 mM as negative control
Chain of Fas/FAP-1 binding (Q12923 1361-1456 limits assumed): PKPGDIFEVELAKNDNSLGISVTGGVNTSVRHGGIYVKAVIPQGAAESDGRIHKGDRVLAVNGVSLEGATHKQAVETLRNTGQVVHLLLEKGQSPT
Procedure: HFAP-10 cDNA (Sato, et al. 1995) subcloned into the Bluescript vector pSK-II (Stratagene) was in vitro-translated from an internal methionine codon in the presence of ^35S-L-methionine using a coupled in vitro transcription/translation system (Promega, TNT lysate) and T7 RNA polymerase. The resulting ^35S-labeled protein was incubated with GST-Fas fusion proteins that had been immobilized on […] affinity beads (Pharmacia) in a buffer containing 150 mM NaCl, 50 mM Tris [pH 8.0], 5 mM DTT, 2 mM EDTA, 0.1% NP-40, 1 mM PMSF, 50 μg/ml leupeptin, 1 mM Benzamidine, and 7 μg/ml pepstatin for 16 hours at 4° C. After washing vigorously 4 times in the same buffer, associated proteins were recovered with the glutathione-Sepharose beads by centrifugation, eluted into boiling Laemmli buffer, and analyzed by SDS-PAGE and fluorography.
In vitro-translated [^35]HFAP-1 was purified with a NAP-5 column (Pharmacia) and incubated with 3 μM of GST-fusion proteins for 16 hours at 4° C. After washing 4 times in the binding buffer, radioactivity incorporation was determined in a b counter. The percentage of binding inhibition was calculated as follows: percent inhibition=[radioactivity incorporation using GST-Fas (191-335) with peptides−radioactivity incorporation using GST-Fas (191-320) with peptides]/[radioactivity incorporation using GST-Fas (191-335) without peptides−radioactivity incorporation using GST-Fas (191-320) without peptides]. n=3.

Row | Substance | binding activity of FAP-1 to Fas proteins extracted from Jurkat T-cells [1] | induction of apoptosis in microinjected DLD-1 cells [2] | binding of in vitro-translated FAP-1 to GST-Fas (Fas/FAP-1 binding) | inhibitory effect on the binding of FAP-1 to Fas, truncated C-terminal peptides (Fas/FAP-1 binding; FIG. 3B, acetylated synthetic peptides)
1 | Ac-SLY: acetylated synthetic tripeptide SLY used as a non-binding control (Ac-Ser-Leu-Tyr) [reference compound] | not | did not; also recorded: only one cell of the area appeared apoptotic | – | –
2 | DSENSNFRNEIQSLV (Ac-DSENSNFRNEIQSLV) [synthetic 15 amino acids of Fas, synthetic peptide of the C-terminal 15 amino acids of Fas] | – | – | dramatically reduced | –
3 | Ac-SLV-COOH (Ac-Ser-Leu-Val-OH) [acetylated tripeptide, the three C-terminal amino acids of Fas] | abolished in a dose-dependent manner | dramatically induced apoptosis; also recorded: showed condensed chromatin | – | same level of inhibitory effect
4 | human PAMP peptide: N-terminal 20 amino acids of proadrenomedullin, negative control (ARLDVASEFRKKWNKWALSR; ends and bridges not checked; UniProt P35318 22-41, looked up) [reference compound] | – | – | had no effect | –
